# Where two headings read alike, the source gives them in different places.
# Legend:
# [1] = test system: reverse passive Arthus reaction in the pleural cavity of rats; assay: reverse passive Arthus reaction in the pleural cavity of rats (pleurisy); assay type: in vivo, Male Lewis rats; details: Rattus norvegicus, po; for inhibition in vivo at 3.125 mg/kg: 3.125 mg/kg p.o. (Table 4); for inhibition in vivo at 6.25 mg/kg: 6.25 mg/kg p.o. (Table 4); for inhibition in vivo at 12.5 mg/kg: 12.5 mg/kg p.o. (Table 4); for inhibition in vivo at 50 mg/kg: 50 mg/kg p.o. (Table 4); for inhibition in vivo at 1 mg/kg: 1 mg/kg p.o.; for inhibition in vivo at 3 mg/kg: 3 mg/kg p.o.; for inhibition in vivo at 9 mg/kg: 9 mg/kg p.o.
# Procedure: Another procedure for testing for acute antiinflammatory activity measures the reverse passive Arthus reaction in the pleural cavity of rats.
# Male Lewis rats weighing 180-220 grams were obtained from Charles River Breeding Laboratories, Wilmington, MA and permitted food and water ad libitum. Rooms housing the animals were temperature controlled with a 12 hour light and dark cycle.
# Groups of five rats were dosed with drug 30 minutes prior to sensitization with BSA (1 mg/0.2 ml saline). Thirty minutes later the animals were challenged with the IgG fraction of a rabbit anti-bovine serum albumi antibodies (0.1 mg antibody protein per 0.2 ml saline Cooper Biomedical, Malvern, PA) in the pleural cavity. Four hours after challenge, the rats were sacrificed and the exudate harvested from the pleural cavity. The volume of the exudate was measured and the total number of cells determined with a Coulter Counter. [formula]
# The results measured as percent inhibition of the infiltration of polymorphonuclear leucocytes (PMNs) and of edena are set forth below in Table 3.
# [2] = test system: anaphylactic bronchospasm in sensitized guinea pigs; assay: anaphylactic bronchospasm in sensitized guinea pigs (modified Konzett-Rossler), antigen-induced SRS-A mediated bronchoconstriction; assay type: in vivo; details: for % Inhibition of Broncho-constriction: 2 hours before antigen challenge, inhibition of increase in intratracheal pressure; for % Inhibition of Bronchoconstriction: comparison compound (Table 2)
# Procedure: The anti-allergy method of this invention is identified by tests which measure a compound's inhibition of anaphylactic bronchospasm in sensitized guinea pigs having antigen-induced SRS-A mediated bronchoconstriction. Allergic bronchospasm was measured in actively sensitized guinea pigs by a modification of the procedure of Konzett and Rossler, Arch. Exptl. Pathol. […] Male Hartley guinea pigs were sensitized with 5 mg ovalbumin injected ip and 5 mg injected sc in 1 ml saline on day 1 and 5mg ovalbumin injected ip on day 4. The sensitized animals were used 3-4 weeks later. To measure anaphylactic bronchospasm, sensitized guinea pigs were fasted overnight and the following morning were anesthetized with 0.9 ml/kg ip of dialurethane. The trachea and jugular vein were cannulated and the animals were ventilated by a Harvard rodent respirator. A side arm to the tracheal cannula was connected to a Harvard pressure transducer to obtain a continuous measure of intratracheal pressure. An increase in intratracheal pressure was taken as a measure of bronchoconstriction. Each guinea pig was injected iv with 1mg/kg propranolol, 5 mg/kg indomethacin and 2 mg/kg mepyramine given together in a volume of 1 ml/kg. Fifteen minutes later, the animals were challenged with antigen (0.5 per cent ovalbumin) delivered as an aerosol generated from a DeVilbiss Model 65 ultrasonic nebulizer and delivered through the tracheal cannula for 30 seconds. Bronchoconstriction was measured as the peak increase in intratracheal pressure occurring within 15 minutes after antigen challenge.
# [3] = test system: Reversed Passive Arthus Reaction (RPAR)-PAW; assay: Reversed Passive Arthus Reaction (RPAR)-PAW technique; assay type: in vivo, male Lewis rats; details: 25 mg/kg (p.o.); paw volume at 2 hours post-challenge
# Procedure: The compounds of this invention are also useful for the treatment of inflammation; thus, they are useful for the treatment of: arthritis, bursitis, tendonitis, gout and other inflammatory conditions. […] The potency of the compounds is determined using indomethacin as the standard. On the basis of the test results, an oral dosage range of about 5 milligrams per kilogram of body weight per day to about 50 milligrams per kilogram of body weight per day in divided doses taken at about 4 hour intervals is recommended, again with any of the conventional modes of administration for treatment of inflammation being suitable.
# Male Lewis inbred albino rats weighing 180-220 grams obtained from Charles River Breeding Laboratories are used in these experiments. The rats are housed 3 animals/cage and food and water are allowed ad libitum. The animals are numbered 1-3 in each cage and color marked for identification purposes.
# All reagents and drugs are prepared just prior to the study. […]
# Groups of animals (6/group) are dosed with drug in MC by gavage one hour prior to sensitization with BSA. […] The volume of mercury displaced is converted to weight and recorded. […] Paw volumes are also recorded with a plethysmograph during the development of the inflammation at 2 hours post-challenge.
# [4] = 4 h, read-out: Pleurisy (% Inhibition) Edema
# [5] = 4 h, read-out: Pleurisy (% Inhibition) PMNs
# [6] = 25 mg/kg p.o., exudate 4 hours after challenge, read-out: Pleurisy (% Inhibition) Edema
# [7] = 25 mg/kg p.o., exudate 4 hours after challenge, read-out: Pleurisy (% Inhibition) PMNs
structure (smiles),measurement,setting,value
"C[C@]12C=CC(=O)C=C1CC[C@@H]1[C@@H]2C(=O)C[C@@]2(C)[C@H]1CC[C@]2(O)C(=O)CO [Prednisone, prednisone, reference compound]",inhibition in vivo at 3.125 mg/kg,[1]; [4],2%
same,inhibition in vivo at 3.125 mg/kg,[1]; [5],7%
same,inhibition in vivo at 6.25 mg/kg,[1]; [4],17%
same,inhibition in vivo at 6.25 mg/kg,[1]; [5],16%
same,inhibition in vivo at 12.5 mg/kg,[1]; [4],27%
same,inhibition in vivo at 12.5 mg/kg,[1]; [5],20%
same,inhibition in vivo at 25 mg/kg,"[1]; 4 h, 25 mg/kg p.o. (Table 4), read-out: Pleurisy (% Inhibition) Edema",44%
same,inhibition in vivo at 25 mg/kg,"[1]; 4 h, 25 mg/kg p.o. (Table 4), read-out: Pleurisy (% Inhibition) PMNs",25%
same,inhibition in vivo at 50 mg/kg,[1]; [4],58%
same,inhibition in vivo at 50 mg/kg,[1]; [5],42%
"CN1CCn2c1c(-c1ccccc1)c1ncccc1c2=O [R^3=CH3, R^4=phenyl, n=2, 2,3-dihydro-1-methyl-10-phenylimidazo[1,2-g][1,6]naphthyridin-5(1H)-one]",inhibition in vivo at 25 mg/kg,[1]; [6],56%
same,inhibition in vivo at 25 mg/kg,[1]; [7],69%
"O=c1c2cccnc2c(-c2cccc(Cl)c2)c2n1CCCN2 [R^3=H, R^4=3-chloro phenyl, n=3, 11-(3-chlorophenyl)-1,2,3,4-tetrahydro-6H-pyrimido[1,2-g][1,6]naphthyridin-6-one]",% Inhibition of Broncho-constriction,[2]; 5 mg/kg p.o.,54%
same,inhibition in vivo at 25 mg/kg,[1]; [6],76%
same,inhibition in vivo at 25 mg/kg,[1]; [7],82%
"O=c1c2cccnc2c(-c2cccc(Cl)c2)c2n1CCN2 [R^3=H, R^4=3-chloro-phenyl, n=2, 10-(3-chlorophenyl)-2,3-dihydroimidazo[1,2-g][1,6]naphthyridin-5(1H)-one]",% Inhibition of Broncho-constriction,[2]; 5 mg/kg p.o.,43%
"COc1cccc(-c2c3n(c(=O)c4cccnc24)CCN3)c1 [R^3=H, R^4=3-methoxy-phenyl, n=2, 2,3-dihydro-10-(3-methoxyphenyl)imidazo-[1,2-g][1,6]naphthyridin-5(1H)-one]",% Inhibition of Broncho-constriction,[2]; 5 mg/kg p.o.,61%
same,inhibition in vivo at 25 mg/kg,[1]; [6],69%
same,inhibition in vivo at 25 mg/kg,[1]; [7],79%
"O=c1c2cccnc2c(-c2ccc(Cl)cc2)c2n1CCN2 [R^3=H, R^4=4-chloro-phenyl, n=2, 10-(4-chlorophenyl)-2,3-dihydro-imidazo[1,2-g][1,6]naphthyridin-5(1H)-one]",% Inhibition of Broncho-constriction,[2]; 5 mg/kg p.o.,11%
same,inhibition in vivo at 25 mg/kg,[1]; [6],92%
same,inhibition in vivo at 25 mg/kg,[1]; [7],95%
"COc1ccc(-c2c3n(c(=O)c4cccnc24)CCN3)cc1 [R^3=H, R^4=4-methoxy-phenyl, n=2, 2,3-dihydro-10-(4-methoxyphenyl)imidazo-[1,2-g][1,6]naphthyridin-5(1H)-one]",% Inhibition of Broncho-constriction,[2]; 10 mg/kg p.o.,8%
same,inhibition in vivo at 25 mg/kg,[1]; [6],42%
same,inhibition in vivo at 25 mg/kg,[1]; [7],49%
"Cc1ccc(-c2c3n(c(=O)c4cccnc24)CCN3)cc1 [R^3=H, R^4=4-methyl phenyl, n=2, 2,3-dihydro-10(4-methylphenyl)imidazo-[1,2-g][1,6]naphthyridin-5(1H)-one]",% Inhibition of Broncho-constriction,[2]; 5 mg/kg p.o.,1%
same,inhibition,[3],42%
same,inhibition in vivo at 25 mg/kg,[1]; [6],42%
same,inhibition in vivo at 25 mg/kg,[1]; [7],53%
"O=c1c2cccnc2c(-c2cccc3ccccc23)c2n1CCN2 [R^3=H, R^4=naphthyl, n=2, 2,3-dihydro-10-(1-naphthalenyl)imidazo-[1,2-g][1,6]naphthyridin-5(1H)-one]",inhibition in vivo at 25 mg/kg,[1]; [6],28%
same,inhibition in vivo at 25 mg/kg,[1]; [7],50%
"O=c1c2cccnc2c(-c2ccccc2)c2n1CCN2 [R^3=H, R^4=phenyl, n=2, 2,3-dihydro-10-phenylimidazo[1,2-g][1,6]-naphthyridin-5(1H)-one]",% Inhibition of Broncho-constriction,[2]; 10 mg/kg p.o.,16%
same,inhibition,[3],92%
same,inhibition in vivo at 1 mg/kg,[1]; [4],9%
same,inhibition in vivo at 1 mg/kg,[1]; [5],3%
same,inhibition in vivo at 3 mg/kg,[1]; [4],25%
same,inhibition in vivo at 3 mg/kg,[1]; [5],28%
same,inhibition in vivo at 9 mg/kg,[1]; [4],34%
same,inhibition in vivo at 9 mg/kg,[1]; [5],54%
same,inhibition in vivo at 25 mg/kg,[1]; [6],55%
same,inhibition in vivo at 25 mg/kg,[1]; [7],90%
"Cn1c(=O)c2[nH]cnc2n(C)c1=O [aminophylline, reference compound]",% Inhibition of Bronchoconstriction,[2]; 18 mg/kg p.o.,21%
same,% Inhibition of Bronchoconstriction,[2]; 53 mg/kg p.o.,58%
"C[C@@H]1C[C@H]2[C@@H]3CCC4=CC(=O)C=C[C@]4(C)[C@@]3(F)[C@@H](O)C[C@]2(C)[C@@]1(O)C(=O)CO [dexamethasone, reference compound]",% Inhibition of Bronchoconstriction,[2]; 3 mg/kg p.o.,38%
same,% Inhibition of Bronchoconstriction,[2]; 10 mg/kg p.o.,46%
"CC(C)(C)c1ccc(C(O)CCCN2CCC(C(O)(c3ccccc3)c3ccccc3)CC2)cc1 (stereo not shown) [terfenadine, reference compound]",% Inhibition of Bronchoconstriction,[2]; 30 mg/kg p.o.,5%

# Source: patent EP0325048A1, “Imidazo- and pyrimido-quinoline, naphthyridine and pyridopyrazine compounds” (SCHERING CORPORATION, priority 1987, dated 1989)
